Reference: ChEMBL document CHEMBL5257148, “Novel Tricyclic Compounds as KRAS Inhibitors for Treating Cancer” (ACS Med Chem Lett, 2023)

Tests used:
GTPase KRas [1] = target: T1, GTPase KRas (Homo sapiens, UniProt P01116, G12C); experiment: Inhibition of KRAS G12C mutant (unknown origin) assessed as inhibition of SOS1 mediated nucleotide exchange incubated for 2 hrs in presence of GppNHp by fluorescence based analysis
GTPase KRas [2] = target: T1, GTPase KRas; experiment: Inhibition of KRAS G12C mutant in human MIA PaCa-2 cells assessed as reduction in pERK level incubated for 4 hrs by HTRF assay; assay type: cell-based
GTPase KRas [3] = target: T1, GTPase KRas; experiment: Inhibition of KRAS G12C mutant in human MIA PaCa-2 cells assessed as reduction in whole blood pERK level incubated for 4 hrs by HTRF assay; assay type: cell-based

Measured: IC50

T1 sequence (P01116 whole entry G12C): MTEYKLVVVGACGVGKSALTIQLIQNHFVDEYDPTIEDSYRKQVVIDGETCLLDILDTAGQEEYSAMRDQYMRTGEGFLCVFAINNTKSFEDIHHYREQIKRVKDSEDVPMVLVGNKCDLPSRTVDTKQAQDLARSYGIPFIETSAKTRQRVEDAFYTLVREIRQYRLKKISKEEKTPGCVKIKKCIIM

COC/C=C/C(=O)N1CC[C@H](n2nnc3c(O[C@@H](C)[C@@H]4CCCN4C)nc4c(F)c(-c5nn(C)c6ccccc56)c(C)cc4c32)C[C@H]1CC#N
≤ 50 nM: GTPase KRas [1] | GTPase KRas [2] | GTPase KRas [3]

C=C(F)C(=O)N1CC[C@H](n2nnc3c(O[C@@H](C)[C@@H]4CCCN4C)nc4c(F)c(-c5ncc(F)c6ccccc56)c(C)cc4c32)C[C@H]1CC#N
≤ 50 nM: GTPase KRas [1] | GTPase KRas [2] | GTPase KRas [3]

Cc1cc2c(nc(O[C@@H](C)[C@@H]3CCCN3C)c3nnn([C@H]4CCN(C(=O)/C=C/CF)[C@H](CC#N)C4)c32)c(F)c1-c1ccc2cnn(C)c2c1
≤ 50 nM: GTPase KRas [1] | GTPase KRas [2] | GTPase KRas [3]

COC/C=C/C(=O)N1CC[C@H](n2nnc3c(O[C@@H](C)[C@@H]4CCCN4C)nc4c(F)c(-c5ncc(F)c6ccccc56)c(C)cc4c32)C[C@H]1CC#N
≤ 50 nM: GTPase KRas [1] | GTPase KRas [2] | GTPase KRas [3]

Cc1cccc(-c2c(C)cc3c(nc(N4CC(C)(N(C)C)C4)c4nnn([C@H]5CCN(C(=O)/C=C/CF)[C@H](CC#N)C5)c43)c2F)c1Cl
≤ 50 nM: GTPase KRas [1] | GTPase KRas [2] | GTPase KRas [3]

COC/C=C/C(=O)N1CC[C@H](n2nnc3c(O[C@@H](C)[C@@H]4CCCN4C)nc4c(F)c(-c5ccc(F)cc5)c(C)cc4c32)C[C@H]1CC#N
≤ 50 nM: GTPase KRas [1] | GTPase KRas [2] | GTPase KRas [3]
